In patent US5688640A, “Methods of screening of effectors of endothelin converting enzyme-1” (Board of Regents, The University of Texas System, priority 1994, dated 1997):
Entries after “also recorded” stand apart in the source; their conditions may differ. One block for each compound: values may come before it. Ends that are not written are not given here.

Legend:
[1] = molecular target: T1, ECE-1 (Bos taurus, UniProt P42891); test: ECE activity in solubilized CHO/ECE-1 membranes/homogenates, protease inhibitors (generation of mature ET-1 from big ET-1 by EIA); format: biochemical, bovine; conditions: for inhibition of ECE activity (in words): CHO/ECE-1 membranes
T1 construct: The entire coding regions from bovine ECE-1; made in house
T1 sequence (P42891 with tags, fused parts or gaps A87G/A695G limits assumed): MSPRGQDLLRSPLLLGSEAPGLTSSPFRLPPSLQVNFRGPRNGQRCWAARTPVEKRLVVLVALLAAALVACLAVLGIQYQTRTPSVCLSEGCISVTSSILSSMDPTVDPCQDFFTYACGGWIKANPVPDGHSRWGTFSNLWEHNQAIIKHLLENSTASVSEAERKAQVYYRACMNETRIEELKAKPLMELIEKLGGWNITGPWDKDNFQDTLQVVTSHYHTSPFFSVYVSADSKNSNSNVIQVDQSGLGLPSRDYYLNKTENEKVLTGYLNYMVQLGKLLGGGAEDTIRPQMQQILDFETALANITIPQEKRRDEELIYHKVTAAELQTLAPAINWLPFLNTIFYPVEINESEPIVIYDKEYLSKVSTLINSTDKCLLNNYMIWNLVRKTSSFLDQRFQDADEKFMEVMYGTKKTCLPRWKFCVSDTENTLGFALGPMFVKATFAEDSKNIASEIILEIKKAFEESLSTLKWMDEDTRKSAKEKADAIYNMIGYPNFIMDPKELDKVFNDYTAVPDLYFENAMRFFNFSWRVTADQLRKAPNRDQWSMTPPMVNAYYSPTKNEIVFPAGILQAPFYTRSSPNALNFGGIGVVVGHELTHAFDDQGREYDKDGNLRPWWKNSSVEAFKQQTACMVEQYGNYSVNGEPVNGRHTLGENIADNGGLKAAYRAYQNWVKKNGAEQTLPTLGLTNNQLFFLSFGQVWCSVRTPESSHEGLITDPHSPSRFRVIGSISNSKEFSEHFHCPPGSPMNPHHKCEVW
Procedure: Solubilized membranes were prepared from this homogenate as described under Purification of ECE, except that buffer B was used instead of buffer A. For protease inhibitor studies, membranes were prepared by using buffer B without pepstain A, PMSF and pCMS.

[2] = molecular target: T2, ECE (Bos taurus, UniProt Q28010); test: ECE activity in bovine adrenal cortex membrane fractions; format: biochemical
T2 construct: full length 758 aa
T2 sequence (Q28010 1-758): T1 sequence (P42891 with tags, fused parts or gaps A87G/A695G limits assumed)
Procedure: Bovine adrenal glands were obtained at a local slaughter house, immediately immersed in ice-cold Dulbecco's phosphate buffered saline (PBS), and brought to the laboratory within 2 hours. All subsequent procedures were performed at 4° C. Adrenal cortices were carefully separated from the medulla and connective tissue. […] The homogenate was centrifuged at 1,000×g for 10 min, and the resulting supernatant was further centrifuged at 100,000×g for 60 min. The pellet was resuspended in 5×volume of buffer A by a Teflon homogenizer, and centrifuged again at 100,000×g for 60 min. The crude membrane pellet was solubilized at 10-20 mg protein/ml in buffer A containing 2.5% C12 E10 for 30 min. The mixture was centrifuged at 100,000×g for 60 min, and the supernatant was saved as solubilized membrane.

[3] = molecular target: T3, human ETA receptor (Homo sapiens, UniProt P25101); test: Ca2+ transient bioassay in CHO cells expressing human ETA receptors; format: cell-based
T3 sequence (P25101 21-427): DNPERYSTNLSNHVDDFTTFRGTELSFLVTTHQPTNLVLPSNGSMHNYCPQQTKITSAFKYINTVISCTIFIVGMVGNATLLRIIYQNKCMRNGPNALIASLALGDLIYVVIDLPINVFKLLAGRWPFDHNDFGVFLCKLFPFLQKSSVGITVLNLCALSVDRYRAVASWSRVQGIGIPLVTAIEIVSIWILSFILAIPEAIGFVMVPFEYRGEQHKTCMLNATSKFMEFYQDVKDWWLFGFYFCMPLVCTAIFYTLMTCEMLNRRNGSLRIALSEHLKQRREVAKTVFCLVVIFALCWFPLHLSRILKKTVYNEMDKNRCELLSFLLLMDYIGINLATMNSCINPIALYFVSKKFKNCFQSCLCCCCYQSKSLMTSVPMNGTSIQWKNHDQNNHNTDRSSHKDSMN
Procedure: Bioassay of culture supernatants from preproET-1-transfected CHO/ECE-1 cells using CHO cells expressing human ETA receptors as reporter cells. Sup-A and Sup-B represents the serum-free medium conditioned for 12 hours with CHO/ECE-1 and CHO cells each transiently transfected with the preproET-1 construct, respectively.
For the Ca^2+ transient bioassay (see below), Phenol Red-free CHO-SFM medium (Gibco/BRL) without serum was used in order to avoid artefacts induced by serum and the dye.
A CHO stable transfectant clone expressing human ETA receptors was loaded with fura-2/AM, and ET-1 induced intracellular calcium transients were monitored by a Jasco CAM-110 Intracellular Ion Analyzer as previously described (Sakamoto et al., 1993).
The functional authenticity of the immunoreactive mature peptide produced from the double-transfected cells was examined with a bioassay system that uses another line of CHO cells expressing human ETA receptors as reporter cells. A stable transfectant cell line was obtained by transfecting CHO cells with a human ETA receptor construct (Sakamoto et al., 1993). […] Next the supernatants from the preproET-1-transfected CHO/ECE-1 cells were added, so that the final concentration of ET-1 as measured by EIA was ≈20 pM.

[4] = molecular target: T1, ECE-1; test: Secretion of big and mature ET-1 by preproET-1-transfected CHO/ECE-1 cells (conversion of endogenous big ET-1); format: cell-based, bovine
Procedure: (§2) Transient transfection of the preproET-1 cDNA was performed by the DEAE-dextran method as described (Sakurai et al., 1990). Twelve hours after transfection, cells were refed with fresh medium with or without ECE inhibitors. The medium was conditioned for an additional 12 hours and directly subjected to EIA for mature and big ET-1 (Suzuki et al., 1990; Suzuki et al., 1989). For the Ca^2+ transient bioassay (see below), Phenol Red-free CHO-SFM medium (Gibco/BRL) without serum was used in order to avoid artefacts induced by serum and the dye.
To examine whether the expressed ECE-1 can convert big ET-1 in intact cells, paired cultures of CHO/ECE-1 cells and untransfected CHO cells were transiently transfected with the preproET-1 construct. After the transient transfection, the amounts of mature and big ET-1 secreted into the medium were measured by EIA. […] The functional authenticity of the immunoreactive mature peptide produced from the double-transfected cells was examined with a bioassay system that uses another line of CHO cells expressing human ETA receptors as reporter cells. […] The cells were loaded with the Ca^2+ indicator Fura-2/AM, and directly challenged with serum-free, Phenol Red-free culture supernatants from the aforementioned double-transfection protocols. […] Next the supernatants from the preproET-1-transfected CHO/ECE-1 cells were added, so that the final concentration of ET-1 as measured by EIA was ≈20 pM.

[5] = molecular target: T1, ECE-1; test: Production of mature ET-1 by 1:1 co-cultures of CHO/ECE-1 and CHO/preproET-1 cells (conversion of exogenous big ET-1); format: cell-based, bovine
Procedure: as §2
Next, the ability of CHO/ECE-1 cells to convert exogenously supplied big ET-1 was examined by co-culturing the cells with a separate CHO cell line that was stably transfected with the preproET-1 construct (CHO/preproET-1 cells).

[6] = system: CHO/ECE-1 cells; test: Concentration of intact compound in culture medium by HPLC before and after culture with CHO/ECE-1 cells
[7] = system: endothelial ECE; conditions: cited from earlier work; for inhibition of endothelial ECE activity (in words): membranes and purified preparations
[8] = system: ECE; conditions: cited from earlier work
[9] = system: cultured endothelial cells; conditions: cited from earlier work
[10] = molecular target: T1, ECE-1; test: Reconstitution of ECE-1 activity by metal ions after EDTA stripping; format: biochemical, bovine; conditions: ZnCl2 300 μM after 30 μM EDTA
Procedure: FIG. 2D. […] After incubating on ice for 15 min, the designated concentrations of metal ions were added as chloride salt and ECE activity was measured.
(§1) Reaction mixtures for ECE assay (50 μl) contained 0.1M sodium phosphate buffer (pH 6.8), 0.5M NaCl, 0.1 μM human big ET-1(1-38) and enzyme fraction. For some studies, the reactions were preincubated at 37° C. with various protease inhibitors for 15 minutes prior to the addition of big ET-1. The reactions were incubated at 37° C. for 30 min in siliconized 0.5-ml microcentrifuge tubes. […] Duplicate assay wells were used for each enzyme reaction. Protein concentration was determined by the Bradford method (Bio-Rad) using IgG as standard.
Approximately 3,000-cm^2 confluent monolayers of cells (≈10^8 cells) were rinsed twice with ice-cold PBS. Cells were scraped off by a rubber policeman in ice-cold PBS, and collected by centrifugation. All subsequent procedures were performed at 4° C. Cells were resuspended in 10×volume of buffer B (20 mM Tris-HCl (pH 7.4)/20 μM pepstatin A/1 mM PMSF/1 MM pCMS/250 mM sucrose), and homogenized by a 30-ml Teflon homogenizer with the piston rotating at 300 r.p.m. […]

[11] = ET-1(1-20) and ET-1(1-22) relative to authentic ET-1(1-21); cited from earlier work
[12] = molecular target: T1, ECE-1; test: Substrate conversion / isopeptide selectivity of cloned ECE-1 (CHO/ECE-1 membranes or homogenate, EIA); format: biochemical, bovine; conditions: in vitro; big endothelin isopeptides 0.1 μM
Procedure: FIG. 2A. Functional expression of ECE-1 cDNA in transfected CHO cells.
FIG. 2E. Isopeptide selectivity of ECE-1 expressed in solubilized CHO/ECE-1 membranes. Designated synthetic big endothelin isopeptides (0.1 μM) were used as substrates and generation of corresponding mature peptides were measured by EIA.
as §1

[13] = molecular target: T1, ECE-1; test: HPLC analysis of big ET-1 conversion by partially purified ECE-1 from CHO/ECE-1 cells; format: biochemical, bovine; conditions: 5 μM big ET-1, 24 hr
Procedure: FIG. 3. HPLC analysis of big ET-1 conversion by partially purified ECE-1 from CHO/ECE-1 cells. ECE-1 was partially purified from solubilized CHO/ECE-1 membranes by WGA-agarose chromatography as described in Example 1. The enzyme fraction (800 μg protein) was incubated at 37° C. with 1 μM big ET-1 in 800 μl of ECE assay buffer. […] The reaction mixture was separated by HPLC as described in Example 1. Arrows indicate elution times of the authentic peptides.
Samples were injected into a C18 reverse-phase HPLC column (Ultrasphere ODS 5 μm, 4.6×250 mm; Beckman), which was eqhilibrated with 18% (v/v) acetonitrile/0.1% (v/v) TFA and maintained at 40° C. The column was eluted at a flow rate of 1 ml/min with an 18-30% linear gradient of acetonitrile in 0.1% TFA over 12 minutes followed by a 30-36% linear gradient over an additional 12 minutes. Peptides were detected by UV absorbance at 210 nm. […] To confirm chemical authenticity of immunoreactivity in culture supernatants, the conditioned medium was pre-extracted with a Sep-Pak C18 cartridge as described (Suzuki et al., 1989) before HPLC. HPLC fractions (0.5 ml) were collected and evaporated to dryness under vacuum. […] No other immunoreactive peaks were detected. […]

inhibition of ECE activity (in words) ([1]; in vitro): inhibited
Compound: c1cnc2c(c1)ccc1cccnc12 [1,10-phenanthroline]

Compound: C[C@H](CS)C(=O)N1CCC[C@H]1C(=O)O [Captopril]
inhibition of ECE activity (in words) ([1]; in vitro): not inhibited; also recorded: not by thiorphan or captopril

Compound: O=C(O)CN(CCN(CC(=O)O)CC(=O)O)CC(=O)O [EDTA]
inhibition at 1000 µM ([2]; read-out: inhibition of ECE activity): > 90%

Compound: CC(C)C[C@H](NC(=O)N1CCCCCC1)C(=O)N[C@H](Cc1cn(C)c2ccccc12)C(=O)N[C@H](Cc1ccccn1)C(=O)O [FR139317]
inhibition of Ca2+ response to CHO/ECE-1 supernatant (in words) ([3]; supernatant with ≈20 pM ET-1): completely abolished

Compound: COc1c2c(c(O)c3c1C(O)Cc1cc(CC(C)O)c(C(=O)O)c(O)c1-3)C(=O)c1cccc(O)c1C2=O (stereo not shown) [FR901533, 1,6,9,14-tetrahydroxy-3-(2-hydroxypropyl)-7-methoxy-8,13-dioxo-5,6,8,13-tetrahydro-benzo[a]naphthacene-2-carboxylate Na]
inhibition of ECE activity (in words) ([1]; in vitro): efficiently inhibited
IC50 ([1]; in vitro, solubilized CHO/ECE-1 membranes, read-out: apparent IC50 for inhibition of ECE activity): ~1500 nM
inhibition of production/secretion of mature ET-1 by live double-transfected cells (in words) ([4]; inhibitor added to medium): did not inhibit
IC50 [5]: ~1000 nM
inhibition of conversion of exogenous big ET-1 (in words) ([5]; added to medium at low μM concentrations): efficiently inhibited
measured concentration in medium after culture ([6]; 100 μM nominal, after 72-hr culture with CHO/ECE-1 cells): 94 µM
measured concentration in medium before culture ([6]; 100 μM nominal, before 72-hr culture with CHO/ECE-1 cells): 93 µM
degradation by the cells (in words) ([6]; 72-hr culture with CHO/ECE-1 cells): not degraded

Compound: CC(C)C[C@H](NP(=O)(O)O[C@@H]1O[C@@H](C)[C@H](O)[C@@H](O)[C@H]1O)C(=O)N[C@@H](Cc1c[nH]c2ccccc12)C(=O)O [Phosphoramidon]
inhibition at 100 µM ([2]; 100 μM, bovine adrenal cortex membranes): > 90%
inhibition of endothelial ECE activity (in words) [7]: low μM range
inhibition of conversion of exogenous big ET-1 (in words) ([8]; whole animals and isolated perfused organs, most assay systems): consistently inhibits the conversion
effect on production of mature ET-1 (in words) ([9]; added to the medium): decreases the production of mature ET-1 in a dose dependent manner

Compound: O=C(O)CNC(=O)C(CS)Cc1ccccc1 (stereo not shown) [Thiorphan]
inhibition of ECE activity (in words) ([1]; in vitro): not inhibited; also recorded: not by thiorphan or captopril
inhibition of endothelial ECE activity (in words) [7]: not by thiorphan

Compound: [Cl-].[Cl-].[Zn+2] [ZnCl2]
reconstituted ECE activity, of the original levels [10]: up to 110%

Compound: O=S(=O)(O)c1cc[c]([Hg][Cl])cc1 [pCMS, p-chloro-mercuriphenylsulphonic acid]
ECE activity (% of ECE activity without inhibitors) ([1]; inhibitor 100 μM, means of duplicate assays from two independent experiments): 298%

Compound: ET-1(1-20): ET-1(1-20) (CSCSSLMDKECVYFCHLDII; ends and bridges not checked; cysteine pairing not given here; UniProt P05305 53-72, looked up, fragment)
vasoconstrictor/biological activity (in words) [11]: at least three orders of magnitude weaker

Compound: ET-1(1-22): ET-1(1-22) (CSCSSLMDKECVYFCHLDIIWV; ends and bridges not checked; cysteine pairing not given here; UniProt P05305 53-74, looked up, fragment)
vasoconstrictor/biological activity (in words) [11]: at least three orders of magnitude weaker

Compound: big ET-1(1-31): C-terminally truncated substrate (CSCSSLMDKECVYFCHLDIIWVNTPEHVVPY; ends and bridges not checked; cysteine pairing not given here; UniProt P05305 53-83, looked up, fragment)
processing as ECE-1 substrate (in words) [12]: did not generate detectable levels of mature peptide; also recorded: cannot be an ECE-1 substrate

conversion of endogenous big ET-1 (intracellular) ([4]; CHO/ECE-1 cells, depending on experimental conditions): 50-90%
concentration secreted in culture supernatant ([4]; preproET-1-transfected CHO/ECE-1 cells): 46 pM
conversion of endogenous big ET-1 to mature peptide, typical culture ([4]; preproET-1-transfected CHO/ECE-1 cells, no inhibitor): 84%
conversion of exogenous big ET-1 ([5]; co-culture with CHO/ECE-1 cells): 5-10%
intracellular Ca2+ response of ETA reporter cells (in words) ([3]; 20 pM mature ET-1 (final), 1,000-fold higher concentration of big ET-1, supernatant at ≈20 pM ET-1): did not respond
conversion of big ET-1 into two peptide products [13]: > 90%
product yield judged by areas under HPLC peaks [13]: > 80%
Compound: big ET-1: human big ET-1(1-38) obtained from American Peptides (CSCSSLMDKECVYFCHLDIIWVNTPEHVVPYGLGSPRS; ends and bridges not checked; cysteine pairing not given here; UniProt P05305 53-90, looked up)
processing as ECE-1 substrate (in words) [12]: more efficiently than big ET-2 and big ET-3
Km ([7]; crude membranes and purified enzyme preparations, read-out: apparent Km of endothelial ECE): 1 to 10 µM
phosphoramidon-sensitive conversion of exogenously administered big ET-1 (in words) ([8]; isolated perfused tissues and whole animal preparations): only up to a few %
conversion of endogenously produced big ET-1 ([9]; cultured endothelial cells): 60-80%
